Laboratory results reported in paper PMC11013444, “3-NAntC: A Potent Crotoxin B-Derived Peptide against the Triple-Negative MDA-MB-231 Breast Cancer Cell Line” (Molecules, 2024).
≈ marks a conversion by molar mass, not a printed value. Entries after “also recorded” stand apart in the source; their conditions may differ. Read-outs that look alike come from different tables or passages of the source. Where no end group is shown, it is not given here.

What was measured:
MDA-MB-231 cells [1] = experiment: cells; assay type: cell-based, human; conditions: for IC50: Homo sapiens, MDA-MB-231, MTT, range 0.2–2.0 µg/mL, Figure 4, read-out: IC50 (cell viability)
Protocol: (§1) MCF-7 (Luminal breast cancer), MDA-MB-231 (TNBC), and MCF10A (non-tumor mammary gland epithelial cells) were purchased from the Rio de Janeiro Cell Bank (BCRJ, Rio de Janeiro, RJ, Brazil). HMEC (Primary Mammary Epithelial Cells) and HDFa (Human Dermal Fibroblasts) cell lines were purchased from Gibco (Waltham, MA, USA). MCF-7 and MDA-MB-231 were cultured in an RPMI 1640 medium supplemented with 10% heat-inactivated FBS, 1% glutamine, and 1% antibiotic/antimycotic solution. MCF10A and HMEC were cultured in MEBM medium supplemented with 100 ng/mL cholera toxin, 2.5 mM L-glutamine, 5% horse serum, 10 µg/mL human insulin, 0.5 µg/mL hydrocortisone, and 10 ng/mL EGF. All cells used in this study were incubated at 37 °C under 5% CO2 and checked for authenticity through polymerase chain reaction (PCR) followed by fragment analysis of eight highly polymorphic microsatellite loci (short tandem repeat—STR) plus gender determination with score ≥ 80%.
(§2) Stock solutions of Peptides 1 to 12, doxorubicin, and cisplatin were prepared in PBS (1X). Doxorubicin and cisplatin were stored at −20 °C and the peptide solutions were freshly prepared before each experiment. The final concentration of PBS (1X) in the culture medium was lower than 0.02%. All the negative controls contained this vehicle in the same culturing conditions as previously described.
(§3) Cell viability assay was conducted using the MTT method. For treatments lasting 24 h, the cells were seeded at the density of 2 × 10^4 cells/well into 96-well sterile plates, and for treatments lasting 48 or 72 h, the cell density was 1 × 10^4 cells/well. The following day, cells were treated by applying 200 μL/well of each agent (Peptides 1 to 12, doxorubicin, or cisplatin) at the desired concentration and incubated for the duration of the treatment. Afterward, cells were incubated with 20 μL/well of an MTT solution (5 mg/mL) for 2.5 h. Then, formazan salts were solubilized with 200 μL of DMSO: isopropanol (3:1) and agitated for at least 15 min at room temperature. The absorbance was measured at 570 nm with a spectrophotometer (Molecular devices Spectra Max Plus 384—San Jose, CA, USA), and relative cell viability was calculated. To evaluate the mechanism of cell death, cell cultures were treated with peptides in the presence or absence of 3-methyladenine (3-MA) ([…]), which is an autophagy inhibitor [37]. After treatment, the MTT assay was carried out as previously described.

MCF10A cells = assay type: cell-based, human
Protocol: as §1, §2, §3

HDFa cells [2] = experiment: cells; assay type: cell-based, human
Protocol: as §1, §2, §3

zebrafish embryos = experiment: In vivo zebrafish embryo toxicity study
Protocol: Transgenic Tg(fli1:EGFP)^y1 zebrafish embryos were raised at 28 °C for 48 h in E3 embryo medium 0.2 mM 1-Phenyl-2-Thiourea (PTU). […] Zebrafish embryos obtained at 48 h post fertilization (hpf), n = 20 embryos/group, were subcutaneously injected with the 3-NAntC peptide at 0.0015, 0.015, 0.15, 75, and 150 mg/mL diluted in E3 embryo medium containing 0.003% 1-phenyl-2-thiourea (PTU) and the embryos were maintained at 28.5 °C. Pictures were taken after 24, 48, and 72 h of peptide exposure and the percentage of live animals, as well as the percentage of live animals with malformations, were visually analyzed.

HMEC cells = assay type: cell-based, human; conditions: 72 h, 1 µg/mL
Protocol: as §1, §2, §3

MCF-7 cells = assay type: cell-based, human; conditions: for cell viability: 1 µg/mL
Protocol: as §1, §2, §3

MDA-MB-231 cells [3] = experiment: LDH release assay; assay type: cell-based, human; conditions: 0–1.0 µg/mL
Protocol: The CyQUANT LDH Cytotoxicity Assay (Thermo Fisher, Waltham, MA, USA) was employed to determine LDH release as a measure of plasma membrane damage, an important indicator of necrosis and pyroptosis. […] Cell seeding and treatments proceeded as presented in Section 4.3. After treatment incubation, 20 μL of supernatant was transferred to an EIA/RIA plate. The Reaction Mixture (20 μL/well) was added and incubated at room temperature for 30 min in the dark. Afterward, 60 μL/well of the Stop Solution was added and the absorbance of the reaction mixtures was quantified at both 490 nm and 680 nm with a spectrophotometer (Molecular devices Spectra Max Plus 384—San Jose, CA, USA). The absorbance at 680 nm was subtracted from the value at 490 nm, and then relative LDH release was calculated.

HDFa cells [4] = experiment: Cell proliferation assay (BrdU incorporation) in HDFa; assay type: cell-based, human; conditions: 72 hours, range 0.2–1.0 µg/mL
Protocol: (§4) Cell proliferation was assessed with the BrdU method using the Cell Proliferation ELISA, BrdU (colorimetric) kit from Roche (Basel, Switzerland). Cell seeding and treatments were carried out as presented in Section 4.3. BrdU-labeling (20 μL/well) was added and incubated for 2.5 h. Then, ELISA was performed with an anti-BrdU-POD antibody, followed by washing and substrate solutions. The substrate was then developed for 15 min and the reaction was stopped with HCl (6M). The absorbance was measured at 495 nm with a spectrophotometer (Molecular devices Spectra Max Plus 384—San Jose, CA, USA), and the relative cell proliferation was calculated.

MDA-MB-231 cells [5] = experiment: Cell proliferation assay (BrdU incorporation) in MDA-MB-231; assay type: cell-based, human; conditions: for IC50 (proliferation): range 0.2–1.0 µg/mL
Protocol: as §4

## AIPFYAFY [Peptide 2]
MDA-MB-231 cells [1]; 24 h
  IC50 (cell viability): > 20 µg/mL
MDA-MB-231 cells [1]; 24 h, 2.5 µg/mL
  cell viability: 81.6 ± 5.0%
MDA-MB-231 cells [1]; 48 h
  IC50 (cell viability): > 20 µg/mL
MDA-MB-231 cells [1]; 48 h, 2.5 µg/mL
  cell viability: 85.0 ± 7.9%
MCF10A cells; 48 h
  IC50 (cell viability): > 20 µg/mL
MCF10A cells; 48 h, 2.5 µg/mL
  cell viability: 85.7 ± 11.2%

## COc1cccc2c1C(=O)c1c(O)c3c(c(O)c1C2=O)C[C@@](O)(C(=O)CO)C[C@@H]3O[C@H]1C[C@H](N)[C@H](O)[C@H](C)O1 [Doxorubicin, doxorubicin, reference compound]
MDA-MB-231 cells [1]; 48 hours
  IC50: 0.21 µg/mL (≈ 0.386 µM)
MDA-MB-231 cells [1]; 72 hours
  IC50: 0.17 µg/mL (≈ 0.313 µM)
HDFa cells [2]; Homo sapiens, HDFa, 24 hours, MTT, range 0.2–2.0 µg/mL, Figure 4, read-out: IC50 (cell viability)
  IC50: 1.12 µg/mL (≈ 2.06 µM)

## CSCC[C@H](N)C(=O)N[C@@H](Cc1ccccc1)C(=O)N[C@@H](Cc1ccc(O)cc1)C(=O)N1CCC[C@H]1C(=O)N[C@@H](CC(=O)O)C(=O)N[C@@H](CO)C(=O)N[C@@H](CCCNC(=N)N)C(=O)N[C@@H](CS)C(=O)N[C@@H](CCCNC(=N)N)C(=O)NCC(=O)N1CCC[C@H]1C(=O)N[C@@H](CO)C(=O)N[C@@H](CCC(=O)O)C(=O)N[C@H](C(=O)O)[C@@H](C)O [Peptide 3-NAntC]
MDA-MB-231 cells [1]; 24 h, 0.8 µg/mL
  cell viability: 77.5 ± 15.0%
MDA-MB-231 cells [1]; 48 h
  IC50 (cell viability): 1.44 µg/mL (≈ 0.875 µM)
MDA-MB-231 cells [1]; 48 h, 0.8 µg/mL
  cell viability: 60.8 ± 17.9%
MDA-MB-231 cells [1]; 48 h, 1 µg/mL
  cell viability: 64.6 ± 14.5%
MDA-MB-231 cells [1]; 72 h
  IC50 (cell viability): 0.55 µg/mL (≈ 0.334 µM)
MDA-MB-231 cells [1]; 72 h, 1 µg/mL
  cell viability: 49.0 ± 17.5%
HDFa cells [2]; 72 h
  IC50 (cell viability): > 2 µg/mL
HDFa cells [2]; 72 h, 1 µg/mL
  cellular viability: higher than 80%
Zebrafish embryos; 150 mg/mL, after 48 and 72 h of treatment, n = 20 embryos/group
  lethality: 45%
Zebrafish embryos; 150 mg/mL, n = 20 embryos/group
  surviving embryos exhibiting malformations: 50–60%
Zebrafish embryos; 1.5 to 150 µg/mL and 75 mg/mL, embryos 48 hpf, n = 20 embryos/group, 24, 48, 72 h
  lethality and non-lethal events (malformations): no lethal effects; also recorded: did not show lethality or significant non-lethal events (malformations)
Zebrafish embryos; doses up to 150 mg/mL
  LD50 (dose that kills 50% of the embryos): could not be determined
HMEC cells
  cell viability: 98.2 ± 13.8%
MCF-7 cells; 24 h
  IC50 (cell viability): 2.31 µg/mL (≈ 1.4 µM)
MCF-7 cells; 48 h
  IC50 (cell viability): 1.49 µg/mL (≈ 0.905 µM)
  cell viability: 54.7 ± 15.5%
MCF-7 cells; 72 h
  IC50 (cell viability): 1.49 µg/mL (≈ 0.905 µM)
  cell viability: 62.9 ± 26.0%
MCF10A cells; 24 h, 2.5 µg/mL
  cell viability: 93.4 ± 7.4%
MCF10A cells; 48 h
  IC50 (cell viability): > 20 µg/mL
MCF10A cells; 48 h, 2.5 µg/mL
  cell viability: 80.5 ± 5.3%
MCF10A cells; 48 h, 20 µg/mL
  cell viability: 65.9 ± 10.3%
MDA-MB-231 cells [3]; 24 and 48 h treatments
  LDH release: did not consistently increase LDH release
MDA-MB-231 cells [3]; 72 h
  LDH release: increase in LDH release
HDFa cells [4]
  IC50 (proliferation): > 1 µg/mL
MDA-MB-231 cells [5]; 0.6 µg/mL, 48 h, mean ± SEM
  maximum proliferation inhibition: 71.1 ± 27.1%
MDA-MB-231 cells [5]; 24h
  IC50 (proliferation): 0.46 µg/mL (≈ 0.279 µM)
MDA-MB-231 cells [5]; 48h
  IC50 (proliferation): 0.46 µg/mL (≈ 0.279 µM)
MDA-MB-231 cells [5]; 72h
  IC50 (proliferation): 0.37 µg/mL (≈ 0.225 µM)

## CC[C@H](C)[C@H](NC(=O)[C@H](CCSC)NC(=O)[C@H](CCCCN)NC(=O)[C@H](CC(N)=O)NC(=O)[C@H](Cc1ccccc1)NC(=O)[C@H](CCC(N)=O)NC(=O)[C@H](CC(C)C)NC(=O)[C@H](CC(C)C)NC(=O)[C@@H](N)Cc1c[nH]cn1)C(=O)N[C@@H](CCCCN)C(=O)N[C@@H](Cc1ccccc1)C(=O)N[C@@H](CCC(=O)O)C(=O)N[C@H](C(=O)N[C@@H](CCCNC(=N)N)C(=O)N[C@@H](CCCCN)C(=O)N[C@@H](CC(N)=O)C(=O)N[C@@H](C)C(=O)N[C@H](C(=O)N1CCC[C@H]1C(=O)N[C@@H](Cc1ccccc1)C(=O)O)[C@@H](C)CC)[C@@H](C)O [Peptide 1]
MDA-MB-231 cells [1]; 24 h, 2.5 µg/mL
  cell viability: 94.4 ± 4.6%
MDA-MB-231 cells [1]; 48 h, 2.5 µg/mL
  cell viability: 90.7 ± 3.0%
